In patent US9073821B2, “Hydroxamic acid derivative” (priority 2010, dated 2015):
Read-outs that look alike come from different tables or passages of the source.

Target: Pseudomonas aeruginosa LpxC enzyme (Pseudomonas aeruginosa (strain ATCC 15692 / DSM 22644 / CIP 104116 / JCM 14847 / LMG 12228 / 1C / PRS 101 / PAO1), UniProt P47205)
Assay: biochemical
Type: biochemical
Method: Test 1: Evaluation of the Inhibitory Activity on Pseudomonas aeruginosa LpxC Enzyme
An inhibition curve was constructed for each test compound by performing the aforementioned reaction at varying concentrations of the test compound. From this inhibition curve, the concentration of the test compound at which the formation of the reaction product was suppressed by 50% was determined as the IC50 of the test compound, which was an index for the inhibitory activity on Pseudomonas aeruginosa LpxC enzyme.

[1] = inhibitory activity on Pseudomonas aeruginosa LpxC enzyme, class symbols A/B/C, read-out: Enzyme inhibitory activity
[2] = class symbols A/B/C by IC50, Table 3, read-out: Enzyme inhibitory activity (inhibitory activity on Pseudomonas aeruginosa LpxC enzyme)

Row | SMILES | IC50 [1] | IC50 [2]
1 | CCNc1ccc(-c2ccc(C(=O)N(C)C(C(=O)NC)C(=O)NO)cc2)cc1F (stereo not drawn) [Compound 230, 2-[{[4′-(ethylamino)-3′-fluorobiphenyl-4-yl]carbonyl}(methyl)amino]-N-hydroxy-N′-methylpropanediamide] | < 10 nM | –
2 | O=C(NC(C(=O)NO)C(=O)NCc1cocn1)c1ccc(-c2ccc(OCCO)cc2)cc1 (stereo not drawn) [Compound 157, N-hydroxy-2-({[4′-(2-hydroxyethoxy)biphenyl-4-yl]carbonyl}amino)-N′-(1,3-oxazol-4-ylmethyl)propanediamide] | < 10 nM | –
3 | CNC(=O)C(C(=O)NO)N(C)C(=O)c1cnc(-c2ccccc2)cn1 (stereo not drawn) [Compound 299, N-hydroxy-N′-methyl-2-{methyl[(5-phenylpyrazin-2-yl)carbonyl]amino}propanediamide] | > 100 nM | –
4 | Cn1ccnc1CNC(=O)C(NC(=O)c1ccc(-c2ccc(OCCO)cc2)cc1)C(=O)NO (stereo not drawn) [Compound 156, N-hydroxy-2-({[4′-(2-hydroxyethoxy)biphenyl-4-yl]carbonyl}amino)-N′-[(1-methyl-1H-imidazol-2-yl)methyl]propanediamide] | < 10 nM | –
5 | CN(C(=O)c1ccc(-c2ccccc2)cc1)C(C(=O)NO)C(=O)NCc1ncccn1 (stereo not drawn) [Compound 170, 2-[(biphenyl-4-ylcarbonyl)(methyl)amino]-N-hydroxy-N′-(pyrimidin-2-ylmethyl)propanediamide] | > 100 nM | –
6 | CNC(=O)C(C(=O)NO)N(C)C(=O)c1ccc(-c2ccccc2)cc1C (stereo not drawn) [Compound 21, N-hydroxy-N′-methyl-2-{methyl[(3-methylbiphenyl-4-yl)carbonyl]amino}propanediamide] | > 100 nM | –
7 | CNC(=O)C(C(=O)NO)N(C)C(=O)c1ccc(-c2ccc(C)cc2F)cc1 (stereo not drawn) [Compound 23, 2-{[(2′-fluoro-4′-methylbiphenyl-4-yl)carbonyl](methyl)amino}-N-hydroxy-N′-methylpropanediamide] | < 10 nM | –
8 | Cn1cc(CNC(=O)C(NC(=O)c2ccc(-c3ccc(OCCO)cc3)cc2)C(=O)NO)cn1 (stereo not drawn) [Compound 147, N-hydroxy-2-({[4′-(2-hydroxyethoxy)biphenyl-4-yl]carbonyl}amino)-N′-[(1-methyl-1H-pyrazol-4-yl)methyl]propanediamide] | < 10 nM | –
9 | CNC(=O)C(C(=O)NO)N(C)C(=O)c1ccc(-c2ccncc2F)cc1 (stereo not drawn) [Compound 448, 2-[{[4-(3-fluoropyridin-4-yl)phenyl]carbonyl}(methyl)amino]-N-hydroxy-N′-methylpropanediamide] | 10 to 100 nM | –
10 | CCn1cc(C#Cc2ccc(C(=O)N(C)C(C(=O)NC)C(=O)NO)cc2)cn1 (stereo not drawn) [Compound 517, 2-[({4-[(1-ethyl-1H-pyrazol-4-yl)ethynyl]phenyl}carbonyl)(methyl)amino]-N-hydroxy-N′-methylpropanediamide] | – | 10 to 100 nM
11 | Cc1nnc(CNC(=O)C(NC(=O)c2ccc(-c3ccc(OCCO)cc3)cc2)C(=O)NO)s1 (stereo not drawn) [Compound 155, N-hydroxy-2-({[4′-(2-hydroxyethoxy)biphenyl-4-yl]carbonyl}amino)-N′-[(5-methyl-1,3,4-thiadiazol-2-yl)methyl]propanediamide] | < 10 nM | –
12 | CNC(=O)C(C(=O)NO)N(C(=O)c1ccc(-c2ccc(OCCO)cc2)cc1)C1CC1 (stereo not drawn) [Compound 154, 2-(cyclopropyl {[4′-(2-hydroxyethoxy)biphenyl-4-yl]carbonyl}amino)-N-hydroxy-N′-methylpropanediamide] | 10 to 100 nM | –
13 | CNC(=O)C(C(=O)NO)N(C)C(=O)c1ccc(C#CC#Cc2ccoc2)cc1 (stereo not drawn) [Compound 484, 2-[({4-[4-(furan-3-yl)buta-1,3-diyn-1-yl]phenyl}carbonyl)(methyl)amino]-N-hydroxy-N′-methylpropanediamide] | < 10 nM | –
14 | CNC(=O)C(C(=O)NO)N(C)C(=O)c1ccc(C#Cc2ccc(CN3CC(C)(O)C3)cc2)cc1 (stereo not drawn) [Compound 321, N-hydroxy-2-[{[4-({4-[(3-hydroxy-3-methylazetidin-1-yl)methyl]phenyl}ethynyl)phenyl]carbonyl}(methyl)amino]-N′-methylpropanediamide] | < 10 nM | –
15 | O=C(NC(C(=O)NO)C(=O)NCc1ccncc1)c1ccc(-c2ccc(OCCO)cc2)cc1 (stereo not drawn) [Compound 124, N-hydroxy-2-({[4′-(2-hydroxyethoxy)biphenyl-4-yl]carbonyl}amino)-N′-(pyridin-4-ylmethyl)propanediamide] | < 10 nM | –
16 | CN(C(=O)c1ccc(-c2ccccc2)cc1)C(C(=O)NO)C(=O)NC1CC1 (stereo not drawn) [Compound 175, 2-[(biphenyl-4-ylcarbonyl)(methyl)amino]-N-cyclopropyl-N′-hydroxypropanediamide] | > 100 nM | –
17 | CNC(=O)C(C(=O)NO)N(C)C(=O)c1ccc(-c2cc(F)c(F)c(F)c2)cc1 (stereo not drawn) [Compound 220, N-hydroxy-N′-methyl-2-{methyl[(3′,4′,5′-trifluorobiphenyl-4-yl)carbonyl]amino}propanediamide] | 10 to 100 nM | –
18 | CNC(=O)C(C(=O)NO)N(C)C(=O)c1ccc(-c2ccc(NC)c(C)c2)cc1 (stereo not drawn) [Compound 45, N-hydroxy-N′-methyl-2-(methyl {[3′-methyl-4′-(methylamino)biphenyl-4-yl]carbonyl}amino)propanediamide] | < 10 nM | –
19 | CN(C)C(=O)CNC(=O)C(C(=O)NO)N(C)C(=O)c1ccc(-c2ccccc2)cc1 (stereo not drawn) [Compound 173, 2-[(biphenyl-4-ylcarbonyl)(methyl)amino]-N-[2-(dimethylamino)-2-oxoethyl]-N′-hydroxypropanediamide] | > 100 nM | –

Continued, values first:

Row | IC50 [1] | IC50 [2] | SMILES
20 | < 10 nM | – | CNC(=O)C(C(=O)NO)N(C)C(=O)c1ccc(-c2ccc(OCCCN3CCC(F)(F)CC3)cc2)cc1 (stereo not drawn) [Compound 264, 2-[({4′-[3-(4,4-difluoropiperidin-1-yl)propoxy]biphenyl-4-yl}carbonyl)(methyl)amino]-N-hydroxy-N′-methylpropanediamide]
21 | 10 to 100 nM | – | CNC(=O)C(C(=O)NO)N(C)C(=O)c1ccc(-c2ccncc2)cc1 (stereo not drawn) [Compound 169, N-hydroxy-N′-methyl-2-{methyl[4-(pyridin-4-yl)benzoyl]amino}propanediamide]
22 | < 10 nM | – | CNC(=O)C(C(=O)NO)N(C)C(=O)c1ccc(C#Cc2ccc(OCCN3CCCOCC3)cc2)cc1 (stereo not drawn) [Compound 381, N-hydroxy-N′-methyl-2-(methyl {[4-({4-[2-(1,4-oxazepan-4-yl)ethoxy]phenyl}ethynyl)phenyl]carbonyl}amino)propanediamide]
23 | < 10 nM | – | CNC(=O)C(C(=O)NO)N(C)C(=O)c1ccc(-c2ccc(OCCCN3CCOC3=O)cc2)cc1 (stereo not drawn) [Compound 71, N-hydroxy-N′-methyl-2-[methyl({4′-[3-(2-oxo-1,3-oxazolidin-3-yl)propoxy]biphenyl-4-yl}carbonyl)amino]propanediamide]
24 | < 10 nM | – | CNC(=O)C(C)(C(=O)NO)N(C)C(=O)c1ccc(-c2ccc(OCCCN3CCOCC3)cc2)cc1 (stereo not drawn) [Compound 350, N-hydroxy-N′,2-dimethyl-2-[methyl({4′-[3-(morpholin-4-yl)propoxy]biphenyl-4-yl}carbonyl)amino]propanediamide]
25 | 10 to 100 nM | – | CNC(=O)C(C(=O)NO)N(C)C(=O)c1ccc(-c2ccc(OCCCNC3CC3)cc2)cc1 (stereo not drawn) [Compound 217, 2-[({4′-[3-(cyclopropylamino)propoxy]biphenyl-4-yl}carbonyl)(methyl)amino]-N-hydroxy-N′-methylpropanediamide]
26 | 10 to 100 nM | – | CNC(=O)C(C(=O)NO)N(C)C(=O)c1ccc(-c2ccc(N3CCOCC3)cc2)cc1 (stereo not drawn) [Compound 53, N-hydroxy-N′-methyl-2-(methyl {[4′-(morpholin-4-yl)biphenyl-4-yl]carbonyl}amino)propanediamide]
27 | < 10 nM | – | CNC(=O)C(C(=O)NO)N(C)C(=O)c1ccc(-c2ccc3c(c2)COC3)cc1 (stereo not drawn) [Compound 290, 2-[{[4-(1,3-dihydro-2-benzofuran-5-yl)phenyl]carbonyl}(methyl)amino]-N-hydroxy-N′-methylpropanediamide]
28 | < 10 nM | – | CNC(=O)C(C(=O)NO)N(C)C(=O)c1ccc(-c2ccc3c(ccn3CCO)c2)cc1 (stereo not drawn) [Compound 31, N-hydroxy-2-[{4-[1-(2-hydroxyethyl)-1H-indol-5-yl]benzoyl}(methyl)amino]-N′-methylpropanediamide]
29 | < 10 nM | – | CNC(=O)C(C(=O)NO)N(C)C(=O)c1ccc(C#Cc2ccc(OCCN3CCOCC3)cc2)cc1 (stereo not drawn) [Compound 382, N-hydroxy-N′-methyl-2-(methyl {[4-({4-[2-(morpholin-4-yl)ethoxy]phenyl}ethynyl)phenyl]carbonyl}amino)propanediamide]
30 | < 10 nM | – | CNC(=O)C(C(=O)NO)N(C)C(=O)c1ccc(-c2ccc(-c3ccc(CN4CCOCC4)o3)cc2)cc1 (stereo not drawn) [Compound 479, N-hydroxy-N′-methyl-2-[methyl({4′-[5-(morpholin-4-ylmethyl)furan-2-yl]biphenyl-4-yl}carbonyl)amino]propanediamide]
31 | < 10 nM | – | CNC(=O)C(C(=O)NO)N(C)C(=O)c1ccc(C#Cc2ccc(CN3CCOCC3)cc2)cc1 (stereo not drawn) [Compound 167, N-hydroxy-N′-methyl-2-[methyl(4-{[4-(morpholin-4-ylmethyl)phenyl]ethynyl}benzoyl)amino]propanediamide]
32 | < 10 nM | – | CNC(=O)C(C(=O)NO)N(C)C(=O)c1ccc(-c2ccc(N3CCC(CN4CCOCC4)C3)cc2)cc1 (stereo not drawn) [Compound 287, N-hydroxy-N′-methyl-2-[methyl({4′-[3-(morpholin-4-ylmethyl)pyrrolidin-1-yl]biphenyl-4-yl}carbonyl)amino]propanediamide]
33 | – | 10 to 100 nM | CNC(=O)C(C(=O)NO)N(C)C(=O)c1ccc(-c2ccc(CCCN3CCCOCC3)cc2)cc1 (stereo not drawn) [Compound 502, N-hydroxy-N′-methyl-2-[methyl({4′-[3-(1,4-oxazepan-4-yl)propyl]biphenyl-4-yl}carbonyl)amino]propanediamide]
